From PubChem BioAssay (NCI)
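In this assay, cells in 96-well plates receive the compound at five concentrations for 48 hours. Endpoints are linearly interpolated between the surrounding concentrations. GI50 is the concentration that inhibits growth by half. The concentration for full growth arrest is given as TGI.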

Tests used:
Assay in all cases: growth of human tumour cells (NCI), 48 h
SK-MEL-2 melanoma = system: SK-MEL-2 melanoma
PC-3 prostate = system: PC-3 prostate
OVCAR-5 ovarian = system: OVCAR-5 ovarian
NCI-H460 lung = system: NCI-H460 lung
SK-OV-3 ovarian = system: SK-OV-3 ovarian
HCC-2998 colon = system: HCC-2998 colon
OVCAR-4 ovarian = system: OVCAR-4 ovarian
HOP-92 NSCLC = system: HOP-92 NSCLC
HT29 colon = system: HT29 colon
LOX IMVI melanoma = system: LOX IMVI melanoma
EKVX NSCLC = system: EKVX NSCLC
HCT-116 colon = system: HCT-116 colon
RXF 393 renal = system: RXF 393 renal
OVCAR-8 ovarian = system: OVCAR-8 ovarian
IGROV1 ovarian = system: IGROV1 ovarian
A549 NSCLC = system: A549 NSCLC
SF-268 CNS = system: SF-268 CNS
NCI-H23 lung = system: NCI-H23 lung
SR leukemia = system: SR leukemia
NCI-H522 lung = system: NCI-H522 lung
MALME-3M melanoma = system: MALME-3M melanoma
BT-549 breast = system: BT-549 breast
SN12C renal = system: SN12C renal
COLO 205 colon = system: COLO 205 colon
SNB-19 CNS = system: SNB-19 CNS
HS 578T breast = system: HS 578T breast
NCI/ADR-RES ovarian = system: NCI/ADR-RES ovarian
MDA-MB-231 breast = system: MDA-MB-231 breast
SNB-75 CNS = system: SNB-75 CNS
U251 CNS = system: U251 CNS
TK-10 renal = system: TK-10 renal
MCF7 breast = system: MCF7 breast
CAKI-1 renal = system: CAKI-1 renal
A498 renal = system: A498 renal
SF-539 CNS = system: SF-539 CNS
UO-31 renal = system: UO-31 renal
RPMI-8226 leukemia = system: RPMI-8226 leukemia
HOP-62 NSCLC = system: HOP-62 NSCLC
NCI-H226 lung = system: NCI-H226 lung
ACHN renal = system: ACHN renal
SF-295 CNS = system: SF-295 CNS
UACC-257 melanoma = system: UACC-257 melanoma
SK-MEL-5 melanoma = system: SK-MEL-5 melanoma
HL-60(TB) leukemia = system: HL-60(TB) leukemia
HCT-15 colon = system: HCT-15 colon
DU-145 prostate = system: DU-145 prostate
MOLT-4 leukemia = system: MOLT-4 leukemia
KM12 colon = system: KM12 colon
SK-MEL-28 melanoma = system: SK-MEL-28 melanoma
SW-620 colon = system: SW-620 colon
UACC-62 melanoma = system: UACC-62 melanoma
CCRF-CEM leukemia = system: CCRF-CEM leukemia
OVCAR-3 ovarian = system: OVCAR-3 ovarian
K-562 leukemia = system: K-562 leukemia
786-0 renal = system: 786-0 renal
T-47D breast = system: T-47D breast

`C/C(=C\c1ccn(-c2ccc(N)c(C(F)(F)F)c2)n1)[C@@H]1C[C@@H]2O[C@]2(C)CCC[C@H](C)[C@H](O)[C@@H](C)C(=O)C(C)(C)[C@@H](O)CC(=O)O1` was tested, and the GI50 (SK-MEL-2 melanoma) was 24.1 nM, the TGI (SK-MEL-2 melanoma) was 10400 nM and the GI50 (PC-3 prostate) was 11.9 nM. For the same molecule, the TGI (PC-3 prostate) was > 31000 nM, the GI50 (OVCAR-5 ovarian) was 25 nM and the TGI (OVCAR-5 ovarian) was > 26100 nM. The GI50 (NCI-H460 lung) was 8.48 nM, the TGI (NCI-H460 lung) was 6210 nM and the GI50 (SK-OV-3 ovarian) was 103 nM. For the same molecule, the TGI (SK-OV-3 ovarian) was > 27900 nM, the GI50 (HCC-2998 colon) was 31.7 nM and the TGI (HCC-2998 colon) was > 20400 nM. For the same molecule, the GI50 (OVCAR-4 ovarian) was 132 nM, the TGI (OVCAR-4 ovarian) was > 32500 nM and the GI50 (HOP-92 NSCLC) was 16.1 nM. For the same molecule, the TGI (HOP-92 NSCLC) was 23900 nM, the GI50 (HT29 colon) was 5.42 nM and the TGI (HT29 colon) was 6130 nM. The GI50 (LOX IMVI melanoma) was 12.2 nM, the TGI (LOX IMVI melanoma) was > 20800 nM and the GI50 (EKVX NSCLC) was 344 nM. For the same molecule, the TGI (EKVX NSCLC) was > 32500 nM, the GI50 (HCT-116 colon) was 7.33 nM and the TGI (HCT-116 colon) was > 29300 nM. It also gave a GI50 (RXF 393 renal) of 11.1 nM, a TGI (RXF 393 renal) of 435 nM and a GI50 (OVCAR-8 ovarian) of 17.7 nM. The TGI (OVCAR-8 ovarian) was > 28100 nM, the GI50 (IGROV1 ovarian) was 77.3 nM and the TGI (IGROV1 ovarian) was > 32500 nM. For the same molecule, the GI50 (A549 NSCLC) was < 11.6 nM, the TGI (A549 NSCLC) was > 32500 nM and the GI50 (SF-268 CNS) was 34.9 nM. For the same molecule, the TGI (SF-268 CNS) was > 32500 nM, the GI50 (NCI-H23 lung) was 22.1 nM and the TGI (NCI-H23 lung) was > 32500 nM. For the same molecule, the GI50 (SR leukemia) was 8.13 nM, the TGI (SR leukemia) was 8640 nM and the GI50 (NCI-H522 lung) was 8.5 nM. For the same molecule, the TGI (NCI-H522 lung) was 57.6 nM, the GI50 (MALME-3M melanoma) was 15 nM and the TGI (MALME-3M melanoma) was 16700 nM. It also gave a GI50 (BT-549 breast) of 22.1 nM, a TGI (BT-549 breast) of 31500 nM and a GI50 (SN12C renal) of 23.7 nM. The TGI (SN12C renal) was > 32500 nM, the GI50 (COLO 205 colon) was 8.55 nM and the TGI (COLO 205 colon) was 111 nM. The GI50 (SNB-19 CNS) was 28.7 nM, the TGI (SNB-19 CNS) was > 32500 nM and the GI50 (HS 578T breast) was 10.3 nM. It also gave a TGI (HS 578T breast) of 11000 nM, a GI50 (NCI/ADR-RES ovarian) of 62.4 nM and a TGI (NCI/ADR-RES ovarian) of 8310 nM. The GI50 (MDA-MB-231 breast) was 134 nM, the TGI (MDA-MB-231 breast) was > 25000 nM and the GI50 (SNB-75 CNS) was 4.13 nM. For the same molecule, the TGI (SNB-75 CNS) was 87.6 nM, the GI50 (U251 CNS) was < 12 nM and the TGI (U251 CNS) was 8550 nM. It also gave a GI50 (TK-10 renal) of 54.8 nM, a TGI (TK-10 renal) of 16900 nM and a GI50 (MCF7 breast) of 3.85 nM. For the same molecule, the TGI (MCF7 breast) was > 16000 nM, the GI50 (CAKI-1 renal) was 42.9 nM and the TGI (CAKI-1 renal) was > 32500 nM. It also gave a GI50 (A498 renal) of 17.5 nM, a TGI (A498 renal) of 1310 nM and a GI50 (SF-539 CNS) of 9.84 nM. For the same molecule, the TGI (SF-539 CNS) was 593 nM, the GI50 (UO-31 renal) was 55 nM and the TGI (UO-31 renal) was > 32500 nM. The GI50 (RPMI-8226 leukemia) was < 10.4 nM, the TGI (RPMI-8226 leukemia) was 10500 nM and the GI50 (HOP-62 NSCLC) was 21.2 nM. The TGI (HOP-62 NSCLC) was > 20300 nM, the GI50 (NCI-H226 lung) was 1990 nM and the TGI (NCI-H226 lung) was > 32500 nM. The GI50 (ACHN renal) was 26.8 nM, the TGI (ACHN renal) was > 29200 nM and the GI50 (SF-295 CNS) was 15.5 nM. The TGI (SF-295 CNS) was 7230 nM, the GI50 (UACC-257 melanoma) was 4270 nM and the TGI (UACC-257 melanoma) was > 32500 nM. For the same molecule, the GI50 (SK-MEL-5 melanoma) was < 10.8 nM, the TGI (SK-MEL-5 melanoma) was 3780 nM and the GI50 (HL-60(TB) leukemia) was 8.6 nM. For the same molecule, the TGI (HL-60(TB) leukemia) was 203 nM, the GI50 (HCT-15 colon) was 10.9 nM and the TGI (HCT-15 colon) was > 27800 nM. The GI50 (DU-145 prostate) was 11.3 nM, the TGI (DU-145 prostate) was 96.9 nM and the GI50 (MOLT-4 leukemia) was 16.6 nM. The TGI (MOLT-4 leukemia) was 19800 nM, the GI50 (KM12 colon) was 8.69 nM and the TGI (KM12 colon) was > 32500 nM. The GI50 (SK-MEL-28 melanoma) was 3870 nM, the TGI (SK-MEL-28 melanoma) was > 32500 nM and the GI50 (SW-620 colon) was 7.43 nM. For the same molecule, the TGI (SW-620 colon) was > 32500 nM, the GI50 (UACC-62 melanoma) was 59.9 nM and the TGI (UACC-62 melanoma) was > 16200 nM. The GI50 (CCRF-CEM leukemia) was 11.7 nM, the TGI (CCRF-CEM leukemia) was > 32500 nM and the GI50 (OVCAR-3 ovarian) was 9.97 nM. For the same molecule, the TGI (OVCAR-3 ovarian) was 1460 nM, the GI50 (K-562 leukemia) was 10.9 nM and the TGI (K-562 leukemia) was > 32500 nM. It also gave a GI50 (786-0 renal) of 17.5 nM, a TGI (786-0 renal) of 12100 nM and a GI50 (T-47D breast) of 16.4 nM. The TGI (T-47D breast) was 28300 nM.
